Data set [1] concerns Mus musculus. Kind of data set: Neurotoxicity in BALB/c mouse at 300 mg/kg, ip after 0.5 to 4 hrs by rotarod test. Format: toxicity, organism-based. More on the design: dose 300 mg/kg, route intraperitoneal. To be noted: in vivo.
The subject of data set [2] is Mus musculus. In words: Anticonvulsant activity in BALB/c mouse assessed as protection against maximal electroshock-induced seizure at 100 mg/kg, ip after 0.5 to 4 hrs. The data set is classed as functional, organism-based. More on the design: dose 100 mg/kg.
The subject of data set [3] is Mus musculus. Kind of data set: Neurotoxicity in BALB/c mouse at 100 mg/kg, ip after 0.5 to 4 hrs by rotarod test. To be noted: in vivo. Format: toxicity, organism-based. More on the design: dose 100 mg/kg, route intraperitoneal.
Data set [4] relates to Mus musculus. In words: Anticonvulsant activity in ip dosed BALB/c mouse assessed as protection against maximal electroshock-induced seizure after 30 mins. The data set is classed as functional. To be noted: 0.5 h.
Data set [5] is described as follows: Neurotoxicity in ip dosed BALB/c mouse after 30 mins by rotarod test. The data set is classed as toxicity, organism-based. To be noted: in vivo.
The species named for data set [6] is Mus musculus. Kind of data set: Protective index, ratio of TD50 for BALB/c mouse by rotarod test to ED50 for BALB/c mouse by maximal electroshock seizure test. Format: functional.
Data set [7] has as its system Mus musculus. In words: Anticonvulsant activity in BALB/c mouse assessed as protection against maximal electroshock-induced seizure at 300 mg/kg, ip after 0.5 to 4 hrs. The data set is classed as functional, organism-based. More on the design: dose 300 mg/kg.

Activity calls are given as the source filed them. No cut-off for these calls is given here. Where only a bound is given, the exact number is not on record here.

Turning to `O=C(CN1C(=O)C(=O)c2cccc(Br)c21)Nc1ccccc1`, the Activity entry in the data set on Mus musculus [1] and in the data set on Mus musculus [3] was “Non-toxic” each time. The result in the data set with Mus musculus [2] was inactive.
On to `O=C(CN1C(=O)C(=O)c2cccc(Cl)c21)Nc1ccccc1`, for which the Activity result in the data set on Mus musculus [1] and in the data set with Mus musculus [3] was “Non-toxic” in each case. For the same compound, in the data set with Mus musculus [2], the result was Active.
`CCC1(c2ccccc2)C(=O)NC(=O)NC1=O` [PHENOBARBITAL]: the ED50 in the data set with Mus musculus [4] amounted to 21.8 mg/kg. This compound also yielded a TD50 at 0.5 h in data set [5] of over 69 mg/kg.
Consider `O=C(CN1C(=O)C(=O)c2ccc(Br)cc21)Nc1ccccc1`, for which the Activity entry in the data set on Mus musculus [1] and with Mus musculus [3] was “Non-toxic” in each case. Moreover, the outcome with Mus musculus [2] was inactive.
For `O=C(CN1C(=O)C(=O)c2cc(Cl)ccc21)Nc1ccccc1`, the ED50 in the data set on Mus musculus [4] is 110 mg/kg. The TD50 at 0.5 h in data set [5] is over 800 mg/kg. Moreover, the Activity entry in the data set on Mus musculus [1] and with Mus musculus [3] was “Non-toxic” in each case. The result with Mus musculus [2] was Active. Further, the “Ratio TD50/ED50” value in the data set filed under Mus musculus [6] is given as over 7.3.
With `NC(=O)N1c2ccccc2C=Cc2ccccc21` [CARBAMAZEPINE], the ED50 in the data set on Mus musculus [4] turned out to be 8.8 mg/kg. This compound gave a TD50 at 0.5 h in data set [5] of over 71.6 mg/kg.
As for `O=C(CN1C(=O)C(=O)c2ccc(F)cc21)Nc1ccccc1`, the Activity result in the data set with Mus musculus [1] and in the data set on Mus musculus [3] was “Non-toxic” throughout. In the data set with Mus musculus [2], the result was inactive.
`O=C(CN1C(=O)C(=O)c2ccccc21)Nc1ccccc1`: in the data set with Mus musculus [4], the ED50 is 94.7 mg/kg. In data set [5], this compound came in with a TD50 at 0.5 h of over 1000 mg/kg. For the same compound, the Activity entry in the data set with Mus musculus [1] and with Mus musculus [3] was “Non-toxic” throughout. Besides, the outcome in the data set on Mus musculus [2] was Active. Besides, the “Ratio TD50/ED50” value in the data set filed under Mus musculus [6] is over 10.6.
As for `O=C(CN1C(=O)C(=O)c2cc(F)ccc21)Nc1ccccc1`, the ED50 in the data set with Mus musculus [4] came out at 88 mg/kg. Further, in data set [5], the TD50 at 0.5 h is over 800 mg/kg. The Activity entry in the data set on Mus musculus [1] and in the data set with Mus musculus [3] was “Non-toxic” in each case. Moreover, in the data set on Mus musculus [2], the outcome was Active. Besides, the “Ratio TD50/ED50” value in the data set listed under Mus musculus [6] is listed as over 9.1.
`O=C1Nc2ccccc2C1=O` [ISATIN]: the Activity entry in the data set on Mus musculus [1] and in the data set on Mus musculus [3] was “Non-toxic” throughout. Besides, the outcome in the data set on Mus musculus [7] was Active.
On to `O=C(CN1C(=O)C(=O)c2cccc([N+](=O)[O-])c21)Nc1ccccc1`, for which the Activity result in the data set with Mus musculus [1] and with Mus musculus [3] was “Non-toxic” throughout. The outcome with Mus musculus [2] was Active.
Turning to `O=C(CN1C(=O)C(=O)c2cc(Br)cc(Br)c21)Nc1ccccc1`, the Activity result in the data set on Mus musculus [1] and in the data set with Mus musculus [3] was “Non-toxic” throughout. The outcome with Mus musculus [7] was Active.
On to `O=C(CN1C(=O)C(=O)c2cc(Br)ccc21)Nc1ccccc1`, for which the Activity result in the data set on Mus musculus [1] and in the data set with Mus musculus [3] was “Non-toxic” each time. Moreover, in the data set with Mus musculus [2], the result was Active.
As to `Cc1ccc2c(c1)C(=O)C(=O)N2CC(=O)Nc1ccccc1`, the ED50 with Mus musculus [4] came out at 91.3 mg/kg. Besides, the TD50 at 0.5 h in data set [5] is over 1000 mg/kg. The Activity result in the data set with Mus musculus [1] and in the data set on Mus musculus [3] was “Non-toxic” throughout. For the same compound, the result with Mus musculus [2] was Active. Besides, the “Ratio TD50/ED50” value in the data set listed under Mus musculus [6] was over 11.
In the case of `O=C(CN1C(=O)C(=O)c2ccc(Cl)cc21)Nc1ccccc1`, the Activity result in the data set with Mus musculus [1] and in the data set on Mus musculus [3] was “Non-toxic” each time. Moreover, the result in the data set with Mus musculus [2] was inactive.
As for `Cc1cccc2c1N(CC(=O)Nc1ccccc1)C(=O)C2=O`, the ED50 with Mus musculus [4] was determined as 114 mg/kg. For the same compound, the TD50 at 0.5 h in data set [5] was over 1000 mg/kg. Also, the Activity result in the data set on Mus musculus [1] and in the data set with Mus musculus [3] was “Non-toxic” throughout. The outcome in the data set on Mus musculus [2] was Active. Besides, the “Ratio TD50/ED50” value in the data set listed under Mus musculus [6] is given as over 8.8.
Regarding `Cc1ccc2c(c1)N(CC(=O)Nc1ccccc1)C(=O)C2=O`, the ED50 in the data set on Mus musculus [4] turned out to be 136 mg/kg. Also, the TD50 at 0.5 h in data set [5] is over 1000 mg/kg. Besides, the Activity result in the data set on Mus musculus [1] and in the data set with Mus musculus [3] was “Non-toxic” throughout. Besides, the result with Mus musculus [2] was Active. The “Ratio TD50/ED50” value in the data set filed under Mus musculus [6] is over 7.3.
